Data from ChEMBL document CHEMBL2434921, “New synthetic aliphatic sulfonamido-quaternary ammonium salts as anticancer chemotherapeutic agents” (2013).
Calls of active or inactive are those of the source. No cut-off for these calls is given here.

How the values were obtained:
[1] = system: NUGC-3; experiment: Growth of human NUGC3 cells at 1 uM after 48 hrs by SRB assay; details: NUGC-3, 48 h
[2] = system: MDA-MB-231; experiment: Growth of human MDA-MB-231 cells at 3 uM after 48 hrs by SRB assay; values are per cent of control; details: MDA-MB-231, 48 h
[3] = target: Rho-related GTP-binding protein RhoB (Homo sapiens) (UniProt P62745); experiment: Transactivation of RhoB (unknown origin) transfected in human HeLa cells at 5 uM measured over 10 secs by dual luciferase reporter gene assay; format: cell-based
Rho-related GTP-binding protein RhoB (Homo sapiens), sequence (P62745 whole entry): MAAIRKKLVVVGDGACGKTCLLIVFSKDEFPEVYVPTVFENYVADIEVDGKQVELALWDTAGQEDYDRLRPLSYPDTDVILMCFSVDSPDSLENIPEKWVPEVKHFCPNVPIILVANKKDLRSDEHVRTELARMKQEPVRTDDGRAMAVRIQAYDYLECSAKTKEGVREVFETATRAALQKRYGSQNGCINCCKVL

[4] = system: ACHN; experiment: Growth inhibition of human ACHN cells at 1 uM after 48 hrs by SRB assay; values are per cent of control
[5] = system: NUGC-3; experiment: Growth inhibition of human NUGC3 cells after 48 hrs by SRB assay; format: functional; details: NUGC-3, 48 h
[6] = system: MDA-MB-231; experiment: Growth of human MDA-MB-231 cells at 1 uM after 48 hrs by SRB assay; details: MDA-MB-231, 48 h
[7] = system: PC-3; experiment: Growth inhibition of human PC3 cells at 0.1 uM after 48 hrs by SRB assay; values are per cent of control; details: PC-3, 48 h
[8] = system: NUGC-3; experiment: Growth inhibition of human NUGC3 cells at 3 uM after 48 hrs by SRB assay; values are per cent of control; details: NUGC-3, 48 h
[9] = system: MDA-MB-231; experiment: Growth of human MDA-MB-231 cells at 0.1 uM after 48 hrs by SRB assay; details: MDA-MB-231, 48 h
[10] = system: HCT-15; experiment: Growth of human HCT15 cells at 0.3 uM after 48 hrs by SRB assay; details: HCT-15, 48 h
[11] = system: PC-3; experiment: Growth inhibition of human PC3 cells at 1 uM after 48 hrs by SRB assay; values are per cent of control; details: PC-3, 48 h
[12] = system: MDA-MB-231; experiment: Growth inhibition of human MDA-MB-231 cells at 0.3 uM after 48 hrs by SRB assay; values are per cent of control; details: MDA-MB-231, 48 h
[13] = system: HCT-15; experiment: Growth inhibition of human HCT15 cells at 0.1 uM after 48 hrs by SRB assay; values are per cent of control; details: HCT-15, 48 h
[14] = system: HCT-15; experiment: Growth inhibition of human HCT15 cells after 48 hrs by SRB assay; format: functional
[15] = system: ACHN; experiment: Growth inhibition of human ACHN cells after 48 hrs by SRB assay; format: functional
[16] = system: ACHN; experiment: Growth of human ACHN cells at 0.1 uM after 48 hrs by SRB assay
[17] = system: ACHN; experiment: Growth of human ACHN cells at 10 uM after 48 hrs by SRB assay
[18] = system: NCI-H23; experiment: Growth of human NCI-H23 cells at 0.3 uM after 48 hrs by SRB assay; details: NCI-H23, 48 h
[19] = system: PC-3; experiment: Growth inhibition of human PC3 cells after 48 hrs by SRB assay; format: functional; details: PC-3, 48 h
[20] = system: PC-3; experiment: Growth inhibition of human PC3 cells at 0.3 uM after 48 hrs by SRB assay; values are per cent of control; details: PC-3, 48 h
[21] = system: NCI-H23; experiment: Growth inhibition of human NCI-H23 cells at 1 uM after 48 hrs by SRB assay; values are per cent of control; details: NCI-H23, 48 h
[22] = system: HCT-15; experiment: Growth inhibition of human HCT15 cells at 1 uM after 48 hrs by SRB assay; values are per cent of control; details: HCT-15, 48 h
[23] = system: PC-3; experiment: Growth inhibition of human PC3 cells at 3 uM after 48 hrs by SRB assay; values are per cent of control; details: PC-3, 48 h
[24] = system: NUGC-3; experiment: Growth of human NUGC3 cells at 0.1 uM after 48 hrs by SRB assay; details: NUGC-3, 48 h
[25] = system: HCT-15; experiment: Growth of human HCT15 cells at 3 uM after 48 hrs by SRB assay; details: HCT-15, 48 h
[26] = system: HCT-15; experiment: Growth inhibition of human HCT15 cells at 10 uM after 48 hrs by SRB assay; values are per cent of control; details: HCT-15, 48 h
[27] = system: NUGC-3; experiment: Growth inhibition of human NUGC3 cells at 10 uM after 48 hrs by SRB assay; values are per cent of control; details: NUGC-3, 48 h
[28] = system: NCI-H23; experiment: Growth inhibition of human NCI-H23 cells at 3 uM after 48 hrs by SRB assay; values are per cent of control; details: NCI-H23, 48 h
[29] = system: NCI-H23; experiment: Growth inhibition of human NCI-H23 cells at 0.1 uM after 48 hrs by SRB assay; values are per cent of control; details: NCI-H23, 48 h
[30] = system: ACHN; experiment: Growth of human ACHN cells at 0.3 uM after 48 hrs by SRB assay
[31] = system: NUGC-3; experiment: Growth of human NUGC3 cells at 0.3 uM after 48 hrs by SRB assay; details: NUGC-3, 48 h
[32] = system: PC-3; experiment: Growth of human PC3 cells at 10 uM after 48 hrs by SRB assay; details: PC-3, 48 h
[33] = system: NCI-H23; experiment: Growth inhibition of human NCI-H23 cells after 48 hrs by SRB assay; format: functional; details: NCI-H23, 48 h
[34] = system: ACHN; experiment: Growth inhibition of human ACHN cells at 3 uM after 48 hrs by SRB assay; values are per cent of control
[35] = system: MDA-MB-231; experiment: Growth of human MDA-MB-231 cells at 10 uM after 48 hrs by SRB assay; details: MDA-MB-231, 48 h
[36] = system: NCI-H23; experiment: Growth of human NCI-H23 cells at 10 uM after 48 hrs by SRB assay; details: NCI-H23, 48 h
[37] = system: MDA-MB-231; experiment: Growth inhibition of human MDA-MB-231 cells after 48 hrs by SRB assay; format: functional; details: MDA-MB-231, 48 h

SMILES | growth, % of control at 1 µM [1] [%] | growth, % of control at 3 µM [2] [%] | Activity [3] | growth, % of control at 1 µM [4] [%] | GI50 [5] [nM] | growth, % of control at 1 µM [6] [%] | growth, % of control at 0.1 µM [7] [%] | growth, % of control at 3 µM [8] [%] | growth, % of control at 0.1 µM [9] [%] | growth, % of control at 0.3 µM [10] [%] | growth, % of control at 1 µM [11] [%] | growth, % of control at 0.3 µM [12] [%] | growth, % of control at 0.1 µM [13] [%] | GI50 [15] [nM] | growth, % of control at 0.1 µM [16] [%] | growth, % of control at 10 µM [17] [%] | growth, % of control at 0.3 µM [18] [%] | GI50 [19] [nM] | growth, % of control at 0.3 µM [20] [%] | growth, % of control at 1 µM [21] [%] | further results
C=CC[N+](C)(C)CCN(C)S(=O)(=O)CCCCCCCCCCCCCC | 73 | 49.7 | Active | 80.3 | 830 | 99.4 | 86.7 | 19.3 | 88 | 91.6 | 48.6 | 107 | 90.5 | 1390 | 92.6 | -36.7 | 80.4 | 460 | 83 | 70.8 | GI50 ([14]; HCT-15, 48 h): 1710 nM; growth, % of control at 1 µM [22]: 81.8%; growth, % of control at 3 µM [23]: 8.4%; growth, % of control at 0.1 µM [24]: 91.6%; growth, % of control at 3 µM [25]: 49.9%; growth, % of control at 10 µM [26]: 22.6%; growth, % of control at 10 µM [27]: -8.4%; growth, % of control at 3 µM [28]: 24%; growth, % of control at 0.1 µM [29]: 78.2%; growth, % of control at 0.3 µM [30]: 101%; growth, % of control at 0.3 µM [31]: 97.1%; growth, % of control at 10 µM [32]: -22.9%; GI50 [33]: 730 nM; growth, % of control at 3 µM [34]: 45.7%; growth, % of control at 10 µM [35]: 20.2%; growth, % of control at 10 µM [36]: -9.2%; GI50 [37]: 1800 nM
CCCCCCCCCCCCCCCCS(=O)(=O)N(C)CCC[N+](C)(C)CC | 16.9 | 27.3 | Active | 64.5 | 200 | 54.4 | 91.6 | -14.1 | 94.8 | 87.4 | 25 | 89.2 | 85.4 | 950 | 102 | 1.6 | 73.1 | 360 | 88.2 | 58.8 | GI50 ([14]; HCT-15, 48 h): 780 nM; growth, % of control at 1 µM [22]: 56.5%; growth, % of control at 3 µM [23]: -17.9%; growth, % of control at 0.1 µM [24]: 76.9%; growth, % of control at 3 µM [25]: 30.5%; growth, % of control at 10 µM [26]: 15.7%; growth, % of control at 10 µM [27]: -27.9%; growth, % of control at 3 µM [28]: 14.8%; growth, % of control at 0.1 µM [29]: 70.4%; growth, % of control at 0.3 µM [30]: 92.1%; growth, % of control at 0.3 µM [31]: 63.4%; growth, % of control at 10 µM [32]: -28.9%; GI50 [33]: 430 nM; growth, % of control at 3 µM [34]: 35.6%; growth, % of control at 10 µM [35]: 0%; growth, % of control at 10 µM [36]: -22.7%; GI50 [37]: 690 nM
CCCCCCCCCCCCCCS(=O)(=O)NCC(C)(C)C[N+](C)(C)CC | 33.8 | 32.8 | Active | 68.2 | 510 | 49.9 | 106 | 3.9 | 91.2 | 111 | 19.6 | 89.3 | 112 | 2520 | 101 | 36.1 | 109 | 460 | 99.3 | 52.9 | GI50 [14]: inactive; growth, % of control at 1 µM [22]: 104%; growth, % of control at 3 µM [23]: -11.9%; growth, % of control at 0.1 µM [24]: 110%; growth, % of control at 3 µM [25]: 91.6%; growth, % of control at 10 µM [26]: 59.4%; growth, % of control at 10 µM [27]: -15.7%; growth, % of control at 3 µM [28]: 28.3%; growth, % of control at 0.1 µM [29]: 121%; growth, % of control at 0.3 µM [30]: 97.7%; growth, % of control at 0.3 µM [31]: 107%; growth, % of control at 10 µM [32]: -26%; GI50 [33]: 730 nM; growth, % of control at 3 µM [34]: 60.6%; growth, % of control at 10 µM [35]: 12.9%; growth, % of control at 10 µM [36]: -4%; GI50 [37]: 720 nM
CCCCCCCCCCCCCCCCS(=O)(=O)N(C)CC[N+](C)(C)C | 32.2 | 32.7 | Active | 69.7 | 330 | 66.8 | 99.4 | 14.4 | 98.2 | 91.4 | 56.8 | 95.7 | 95.7 | 1600 | 99.4 | 25.5 | 101 | 620 | 90.3 | 80.3 | GI50 ([14]; HCT-15, 48 h): 700 nM; growth, % of control at 1 µM [22]: 55.3%; growth, % of control at 3 µM [23]: 17.6%; growth, % of control at 0.1 µM [24]: 89.4%; growth, % of control at 3 µM [25]: 22.4%; growth, % of control at 10 µM [26]: 19.5%; growth, % of control at 10 µM [27]: 2.7%; growth, % of control at 3 µM [28]: 41.8%; growth, % of control at 0.1 µM [29]: 103%; growth, % of control at 0.3 µM [30]: 90.3%; growth, % of control at 0.3 µM [31]: 74.1%; growth, % of control at 10 µM [32]: -3.1%; GI50 [33]: 1290 nM; growth, % of control at 3 µM [34]: 51.4%; growth, % of control at 10 µM [35]: 8%; growth, % of control at 10 µM [36]: 6.8%; GI50 [37]: 930 nM
CCCCCCCCCCCCCCCCS(=O)(=O)N(C)CCC[N+](C)(C)C | 25 | 39.2 | Active | 72.2 | 210 | 66.5 | 101 | -22.4 | 97.6 | 104 | 31.5 | 92.3 | 100 | 1000 | 96.7 | -31.4 | 97.3 | 440 | 91 | 72.7 | GI50 ([14]; HCT-15, 48 h): 780 nM; growth, % of control at 1 µM [22]: 57%; growth, % of control at 3 µM [23]: -24.5%; growth, % of control at 0.1 µM [24]: 91.8%; growth, % of control at 3 µM [25]: 26.7%; growth, % of control at 10 µM [26]: 8.7%; growth, % of control at 10 µM [27]: -40.9%; growth, % of control at 3 µM [28]: 26.5%; growth, % of control at 0.1 µM [29]: 94.9%; growth, % of control at 0.3 µM [30]: 97.6%; growth, % of control at 0.3 µM [31]: 59.1%; growth, % of control at 10 µM [32]: -54.1%; GI50 [33]: 910 nM; growth, % of control at 3 µM [34]: 36.3%; growth, % of control at 10 µM [35]: 8.8%; growth, % of control at 10 µM [36]: -10.4%; GI50 [37]: 1040 nM
